Earlier results as cited in patent US20070160542A1, “Methods and systems for the delivery of corticosteroids having an enhanced pharmacokinetic profile” (Verus Pharmaceuticals, Inc., priority 2005, published 2007).

For `CCCC1O[C@@H]2C[C@H]3[C@@H]4CCC5=CC(=O)C=C[C@]5(C)[C@H]4[C@@H](O)C[C@]3(C)[C@]2(C(=O)CO)O1` (stereo partly drawn) [budesonide, (R,S)-11β,16α,17,21-tetrahydroxypregna-1,4-diene-3,20-dione cyclic 16,17-acetal with butyraldehyde], the solubility in alcohols is listed as “readily soluble” and the solubility in water is listed as “virtually insoluble”.
